Laboratory results as given in ChEMBL document CHEMBL5584231, “Rational design of a new short anticancer peptide with good potential for cancer treatment” (Eur J Med Chem, 2024).
The source made the active and inactive calls. No cut-off for these calls is given here. Non-standard residues stand in square brackets, D forms with d. Residues, ends and D or L forms follow the SMILES beside them. Aad = N[C@@H](CCCC(=O)O)C(=O)O

Columns and labels:
[1] = test system: 4T1; experiment: Antitumor activity against mouse 4T1 cells implanted in female Balb/c mouse assessed as reduction in tumor growth at 12 micromol/kg, ip administered every other day for 2 weeks and measured every 2 days; type: functional, organism-based; settings: dose 12.0 µmol/kg
[2] = test system: MCF7; experiment: Anti-invasion activity in human MCF7 cells assessed as reduction in number of passing cells on polycarbonate membrane at 1 times IC50 measured after 24 hrs by crystal violet staining based transwell assay; type: functional, cell-based
[3] = test system: 4T1; experiment: Antitumor activity against mouse 4T1 cells implanted in female Balb/c mouse assessed as increase in tumor cell necrosis at 12 micromol/kg, ip administered every other day for 2 weeks by H and E staining based analysis; type: functional, organism-based; settings: dose 12.0 µmol/kg
[4] = Acute toxicity in female Balb/c mouse assessed as cellular swelling in liver at approximately LD50 administered as single ip dose by H and E staining based analysis; type: organism-based; settings: in vivo
[5] = Acute toxicity in female Balb/c mouse assessed as cellular swelling in spleen at approximately LD50 administered as single ip dose by H and E staining based analysis; type: organism-based; settings: in vivo
[6] = test system: Cell membrane; experiment: Disruption of cell membrane in human MCF7 cells assessed as LDH release at 40 uM incubated for 1 hr by fluorescence based microplate reader analysis relative to control; type: cell membranes
[7] = test system: 4T1; experiment: Antitumor activity against mouse 4T1 cells implanted in female Balb/c mouse assessed as reduction in tumor weight at 12 micromol/kg, ip administered every other day for 2 weeks and measured every 2 days relative to control; type: functional; design: scale not given: the % may be the effect or the level left; settings: dose 12 µmol/kg
[8] = test system: MCF7; experiment: Induction of apoptosis in human MCF7 cells assessed as increase in intracellular ROS generation at 1 times IC50 measured after 0 to 360 mins by DCFH-DA staining based analysis; type: functional, cell-based; settings: time 0-360 min
[9] = Cytotoxicity against HK-2 cells assessed as inhibition of cell growth incubated for 1 hr by MTT assay; type: toxicity, cell-based; settings: human
[10] = test system: MCF7; experiment: Antimigratory activity in human MCF7 cells assessed as reduction in cell migration at 1 times IC50 measured after 24 hrs by scratch-wound healing assay; type: functional, cell-based
[11] = Stability in mouse serum assessed as compound remaining at 10 mM incubated for 6 hrs by RP-HPLC analysis; type: ADME, cell-free; settings: read-out: Stability
[12] = Therapeutic index, ratio of HC10 for mouse RBC to IC50 for cytotoxicity against human MCF7 cells; type: toxicity, cell-based; settings: mouse RBC and MCF7 cells, read-out: TI
[13] = test system: MCF7; experiment: Cytotoxicity against human MCF7 cells assessed as reduction in cell survival at 0.5 to 1 times IC50 incubated for 24 hrs in presence of 1 uM paclitaxel by MTT assay; type: functional, cell-based
[14] = test system: MCF7; experiment: Induction of apoptosis in human MCF7 cells assessed as live cells at 1 times IC50 measured after 24 hrs by Annexin V-FITC staining based flow cytometry analysis (reference value: 92%); type: functional
[15] = test system: Cell membrane; experiment: Disruption of cell membrane integrity in human MCF7 cells assessed as increase in PI fluorescence at 2 times IC50 measured after 0 to 120 mins by laser confocal scanning microscopic analysis; type: cell membranes; settings: time 0-120 min
[16] = test system: MCF7; experiment: Induction of cell cycle arrest at G0/G1 phase in human MCF7 cells at 1 times IC50 measured after 24 hrs by PI/RNase staining based flow cytometry analysis; type: functional
[17] = test system: MCF7; experiment: Cytotoxicity against human MCF7 cells assessed as cell viability at 2 times IC50 measured for 30 mins by MTT assay relative to control; type: functional; settings: 0.5 h
[18] = Therapeutic index, ratio of HC10 for mouse RBC to IC50 for cytotoxicity against RG cells (unknown origin); type: toxicity, cell-based; settings: mouse RBC and RG cells, read-out: TI
[19] = test system: A549; experiment: Cytotoxicity against human A549 cells assessed as inhibition of cell growth incubated for 1 hr by MTT assay; type: functional, cell-based; settings: A549, 1 h
[20] = Cytotoxicity against RG cells (unknown origin) assessed as inhibition of cell growth incubated for 1 hr by MTT assay; type: functional, cell-based
[21] = Toxicity in female Balb/c mouse implanted with mouse 4T1 cells assessed as reduction in body weight at 12 micromol/kg, ip administered every other day for 2 weeks and measured every 2 days; type: organism-based; settings: in vivo, 336 h, dose 12 µmol/kg
[22] = Toxicity in female Balb/c mouse implanted with mouse 4T1 cells assessed as pathological changes in spleen at 12 micromol/kg, ip administered every other day for 2 weeks by H and E staining based analysis; type: organism-based; settings: in vivo, 336 h, dose 12 µmol/kg
[23] = Acute toxicity in female Balb/c mouse assessed as heart damage at approximately LD50 administered as single ip dose by H and E staining based analysis; type: organism-based; settings: in vivo
[24] = test system: Cell membrane; experiment: Induction of morphological changes in cell membrane of human MCF7 cells assessed as intracellular outflow at 1 times IC50 incubated for 1 hr by SEM analysis; type: cell membranes
[25] = test system: 4T1; experiment: Antitumor activity against mouse 4T1 cells implanted in female Balb/c mouse assessed as increase in tumor cell apoptosis at 12 micromol/kg, ip administered every other day for 2 weeks by H and E staining based analysis; type: functional, organism-based; settings: dose 12.0 µmol/kg
[26] = test system: MCF7; experiment: Cytotoxicity against human MCF7 cells assessed as cell death at 1 times IC50 measured within 30 mins by MTT assay relative to control; type: functional; settings: 0.5 h
[27] = Drug uptake in human MCF7 cells at 5 uM incubated for 1 hr by laser confocal scanning microscopic analysis; type: ADME, cell-based; settings: mcf7, 1 h
[28] = test system: MCF7; experiment: Effect on cell cycle progression in human MCF7 cells at 1 times IC50 measured after 1 hr by PI/RNase staining based flow cytometry analysis; type: functional
[29] = test system: MCF7; experiment: Induction of apoptosis in human MCF7 cells assessed as late apoptotic cells at 1 times IC50 measured after 24 hrs by Annexin V-FITC staining based flow cytometry analysis (reference value: 1.60%); type: functional
[30] = Therapeutic index, ratio of HC10 for mouse RBC to IC50 for cytotoxicity against human HeLa cells; type: toxicity, cell-based; settings: mouse RBC and HeLa cells, read-out: TI
[31] = Drug uptake in HK-2 cells at 5 uM incubated for 1 hr by laser confocal scanning microscopic analysis; type: ADME, cell-based; settings: human, hk-2, 1 h
[32] = test system: Cell membrane; experiment: Disruption of cell membrane integrity in human MCF7 cells assessed as increase in PI fluorescence at 1 times IC50 by laser confocal scanning microscopic analysis; settings: time 0-120 min, TDE = time-dependent effect
[33] = test system: Cell membrane; experiment: Induction of cell membrane damage in human MCF7 cells assessed as protein leakage at 1 to 2 times IC50 measured after 0.5 to 6 hrs by UV based analysis; type: cell membranes; settings: time 0.5-6 hrs
[34] = test system: Cell membrane; experiment: Induction of morphological changes in cell membrane of human MCF7 cells assessed as severe membrane rupture at 1 times IC50 incubated for 1 hr by SEM analysis; type: cell membranes
[35] = Acute toxicity in ip dosed female Balb/c mouse administered as single dose and measured for 7 days by karber method; type: organism-based; settings: in vivo, time 7 day
[36] = Therapeutic index, ratio of HC10 for mouse RBC to IC50 for cytotoxicity against human A549 cells; type: toxicity, cell-based; settings: mouse RBC and A549 cells, read-out: TI
[37] = test system: Cell membrane; experiment: Disruption of cell membrane in human MCF7 cells assessed as LDH release at 2.5 to 40 uM incubated for 1 hr by fluorescence based microplate reader analysis; type: cell membranes; settings: dose 2.5-40 µM
[38] = Toxicity in female Balb/c mouse implanted with mouse 4T1 cells assessed as animal death at 12 micromol/kg, ip administered every other day for 2 weeks; type: organism-based; settings: in vivo, 336 h, dose 12 µmol/kg

Compound	Activity [1]	Activity [2]	Activity [3]	Activity [4]	Activity [5]	Activity [6] [%]	Activity [7] [%]	Activity [8]	IC50 at 1 h [9] [µM]	Activity [10]	remaining at 6 h, 10000 µM [11] [%]	selectivity ratio [12]	Activity [13]	Activity [14] [%]	Activity [15]	Activity [16]	Activity [17] [%]	selectivity ratio [18]	IC50 [19] [µM]	IC50 [20] [µM]	also measured
CC(C)C[C@H](NC(=O)[C@H](CCCCN)NC(=O)[C@H](CCCCN)NC(=O)[C@H](CC(C)C)NC(=O)[C@H](CC(C)C)NC(=O)[C@H](CCCCN)NC(=O)[C@H](CCCCN)NC(=O)[C@H](CC(C)C)NC(=O)[C@H](CC(C)C)NC(=O)[C@H](CCCCN)NC(=O)[C@H](CCCCN)NC(=O)[C@H](CC(C)C)NC(=O)[C@@H](N)CC(C)C)C(=O)N[C@@H](CCC(=O)O)C(N)=O (H-LLKKLLKKLLKKLE-NH2)	Active	Active	Active	Toxic	Toxic	74.1	33.4	Active	59.3	Active	> 60	14.2	Active	57.2	Active	Active	~30	14.2	14.4	21.3	Activity [21]: Non-Toxic; Activity [22]: Non-Toxic; Activity [23]: Non-Toxic; Activity [24]: Active; Activity [25]: Active; Activity [26]: ~50%; Drug uptake [27]: Active; Activity [28]: inactive; Activity [29]: 19.1%; selectivity ratio [30]: 32.1; Drug uptake [31]: Not Active; Activity [32]: Tde; Activity [33]: Active; Activity [34]: Active; LD50 at 168 h [35]: 79.9 mg/kg; selectivity ratio [36]: 21.1; Activity [37]: Active; Activity [38]: Non-Toxic
CC(C)C[C@H](NC(=O)[C@H](CC(C)C)NC(=O)[C@H](CCCCN)NC(=O)[C@H](CCCCN)NC(=O)[C@H](CC(C)C)NC(=O)[C@H](CC(C)C)NC(=O)[C@H](CCCCN)NC(=O)[C@H](CCCCN)NC(=O)[C@H](CC(C)C)NC(=O)[C@H](CC(C)C)NC(=O)[C@H](CCCCN)NC(=O)[C@H](CCCCN)NC(=O)[C@H](CC(C)C)NC(=O)[C@@H](N)CC(C)C)C(N)=O (H-LLKKLLKKLLKKLL-NH2)	Active	Active	Active	Toxic	Toxic	82	28.4	Active	5.4	Active	> 60	2.27	Active	58.1	Active	Active	~30	1.69	3.65	6.41	Activity [21]: Non-Toxic; Activity [22]: Non-Toxic; Activity [23]: Non-Toxic; Activity [24]: Active; Activity [25]: Active; Activity [26]: ~50%; Drug uptake [27]: Active; Activity [28]: inactive; Activity [29]: 19.2%; selectivity ratio [30]: 1.83; Drug uptake [31]: Active; Activity [32]: Tde; Activity [33]: Active; Activity [34]: Active; LD50 at 168 h [35]: 50.2 mg/kg; selectivity ratio [36]: 2.96; Activity [37]: Active; Activity [38]: Non-Toxic
CC(C)C[C@H](NC(=O)[C@H](CCCCN)NC(=O)[C@H](CCCCN)NC(=O)[C@H](CC(C)C)NC(=O)[C@H](CC(C)C)NC(=O)[C@H](CCCCN)NC(=O)[C@H](CCCCN)NC(=O)[C@H](CC(C)C)NC(=O)[C@H](CC(C)C)NC(=O)[C@H](CCCCN)NC(=O)[C@H](CCCCN)NC(=O)[C@H](CC(C)C)NC(=O)[C@@H](N)CC(C)C)C(=O)N[C@@H](CCCC(=O)O)C(N)=O (H-LLKKLLKKLLKKL[Aad]-NH2)	Active	Active	Active	Toxic	Toxic	82.3	52.4	Active	38.7	Active	> 60	16.3	Active	55.9	Active	Active	~30	12.7	10.3	20.1	Activity [21]: Non-Toxic; Activity [22]: Non-Toxic; Activity [23]: Non-Toxic; Activity [24]: Active; Activity [25]: Active; Activity [26]: ~50%; Drug uptake [27]: Active; Activity [28]: inactive; Activity [29]: 13.8%; selectivity ratio [30]: 35.7; Drug uptake [31]: Not Active; Activity [32]: Tde; Activity [33]: Active; Activity [34]: Active; LD50 at 168 h [35]: 84 mg/kg; selectivity ratio [36]: 24.9; Activity [37]: Active; Activity [38]: Non-Toxic
